Assay results: PubChem BioAssay (NCI)
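Cultured in 96-well plates, cells were exposed to test compound for 48 hours across five concentrations. Definition used: TGI = concentration required for complete inhibition of growth.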

Legend:
Experiment in all cases: NCI tumour cell line growth inhibition, 48 h
BT-549 breast = tested on: BT-549 breast
OVCAR-5 ovarian = tested on: OVCAR-5 ovarian
RXF 393 renal = tested on: RXF 393 renal
NCI/ADR-RES ovarian = tested on: NCI/ADR-RES ovarian
SW-620 colon = tested on: SW-620 colon
DU-145 prostate = tested on: DU-145 prostate
UACC-257 melanoma = tested on: UACC-257 melanoma
TK-10 renal = tested on: TK-10 renal
KM12 colon = tested on: KM12 colon
786-0 renal = tested on: 786-0 renal
UO-31 renal = tested on: UO-31 renal
EKVX NSCLC = tested on: EKVX NSCLC
MALME-3M melanoma = tested on: MALME-3M melanoma
U251 CNS = tested on: U251 CNS
SNB-19 CNS = tested on: SNB-19 CNS
HCC-2998 colon = tested on: HCC-2998 colon
SK-MEL-2 melanoma = tested on: SK-MEL-2 melanoma
M14 melanoma = tested on: M14 melanoma
SK-OV-3 ovarian = tested on: SK-OV-3 ovarian
T-47D breast = tested on: T-47D breast

SMILES | TGI (BT-549 breast) [µM] | TGI (OVCAR-5 ovarian) [µM] | TGI (RXF 393 renal) [µM] | TGI (NCI/ADR-RES ovarian) [µM] | TGI (SW-620 colon) [µM] | TGI (DU-145 prostate) [µM] | TGI (UACC-257 melanoma) [µM] | TGI (TK-10 renal) [µM] | TGI (KM12 colon) [µM] | TGI (786-0 renal) [µM] | TGI (UO-31 renal) [µM] | TGI (EKVX NSCLC) [µM] | TGI (MALME-3M melanoma) [µM] | TGI (U251 CNS) [µM] | TGI (SNB-19 CNS) [µM] | TGI (HCC-2998 colon) [µM] | TGI (SK-MEL-2 melanoma) [µM] | TGI (M14 melanoma) [µM] | TGI (SK-OV-3 ovarian) [µM] | TGI (T-47D breast) [µM]
CC(=O)OCC1OC(c2nc3ccccc3s2)=CC(OC(C)=O)C1OC(C)=O (configuration not stated) | > 100 | > 100 | > 100 | > 100 | > 100 | > 100 | > 100 | > 100 | > 100 | > 100 | > 100 | > 100 | > 100 | > 100 | > 100 | – | – | – | – | –
Cc1ccc(N2C(=O)CS/C2=C(\C#N)c2nc3ccccc3[nH]2)cc1 | – | > 100 | – | – | > 100 | – | > 100 | > 100 | > 100 | > 100 | > 100 | > 100 | > 100 | > 100 | > 100 | > 100 | > 100 | > 100 | – | –
CCC12CCCN(Cc3ccccc3)C1c1c(n(C)c3ccccc13)C(C(=O)OC)C2 (configuration not stated) | – | > 239 | > 239 | – | > 239 | – | 191 | > 239 | > 239 | > 239 | – | > 239 | > 239 | > 239 | > 239 | > 239 | > 239 | – | > 239 | –
CCCCCCCCCCCCCCCCOCC(CC(F)(F)P(=O)(OCC)OCC)OC(C)=O (configuration not stated) | 28.8 | 34.7 | 38.5 | 32.4 | 29.7 | 28.8 | 33 | 27.3 | 23.8 | 23 | 29.5 | 44.9 | 25.7 | 13.7 | 15.8 | 22.6 | 35.9 | 31.9 | 35 | –
CCOC(=O)/C=C/n1c2ccccc2c(=O)c2ccccc21 | – | – | > 100 | – | > 100 | – | > 100 | > 100 | > 100 | > 100 | > 100 | > 100 | > 100 | > 100 | > 100 | > 100 | > 100 | > 100 | – | –
N#Cc1c(-c2ccc([N+](=O)[O-])cc2)c(C#N)c(=O)n(NS(=O)(=O)c2ccccc2)c1-c1ccccc1 | > 100 | > 100 | > 100 | > 100 | > 100 | – | > 100 | > 100 | > 100 | > 100 | – | > 100 | > 100 | > 100 | > 100 | > 100 | > 100 | > 100 | > 100 | –
CN1c2ccccc2N(C(=O)c2ccc(Cl)cc2)C(CC(=O)O)c2cccn21 (configuration not stated) | – | > 100 | > 100 | – | > 100 | – | > 100 | > 100 | > 100 | > 100 | > 100 | > 100 | > 100 | – | > 100 | > 100 | > 100 | > 100 | > 100 | –
CC(C)C1=CC23CCC4C(C)(C(=O)O)CCCC4(C)C2CC1C1C(=O)N(c2ccccc2N2C(=O)C4C5CC6C7(C)CCCC(C)(C(=O)O)C7CCC6(C=C5C(C)C)C4C2=O)C(=O)C13 (configuration not stated) | – | 25 | 32.1 | – | 30.6 | 21.8 | – | 27.3 | 13.8 | 62.8 | 32.3 | 17.9 | 28.3 | 12 | 16 | 16.1 | 26.1 | 19.8 | – | 42.5
C=CCC(N(C)C(=O)[C@H](Cc1ccccc1)NC(=O)OCc1ccccc1)P(=O)(Oc1ccccc1)Oc1ccccc1 (some centres not stated) | – | – | > 100 | – | > 100 | – | > 100 | > 100 | > 100 | > 100 | > 100 | > 100 | > 100 | > 100 | > 100 | > 100 | > 100 | > 100 | > 100 | –
CN1CNc2nc(N)n(C)c(=O)c2C1 | > 10 | > 10 | > 10 | > 10 | – | > 10 | > 10 | > 10 | > 10 | > 10 | > 10 | > 10 | > 10 | > 10 | > 10 | > 10 | > 10 | > 10 | > 10 | –
COc1ccc(-n2c(=O)[nH]n(C(C)=O)c2=O)cc1 | – | > 100 | > 100 | > 100 | > 100 | > 100 | > 100 | > 100 | > 100 | > 100 | > 100 | > 100 | > 100 | > 100 | > 100 | – | > 100 | > 100 | – | –
COC(=O)CC1NC(=O)[C@@H]1C(C)O (some centres not stated) | – | – | > 100 | – | > 100 | – | > 100 | > 100 | – | > 100 | > 100 | > 100 | > 100 | > 100 | > 100 | > 100 | > 100 | > 100 | – | –
CC1CN(c2ccc(Cl)cc2)CC(C)OC(=O)O1 (configuration not stated) | – | > 100 | > 100 | – | > 100 | – | > 100 | > 100 | > 100 | > 100 | > 100 | > 100 | > 100 | > 100 | > 100 | > 100 | > 100 | > 100 | > 100 | –
N#C/C(c1nc2ccccc2[nH]1)=c1\s/c(=C/c2ccc(Cl)cc2)c(=O)n1-c1ccccc1 | – | > 100 | – | – | > 100 | – | > 100 | > 100 | > 100 | > 100 | > 100 | > 100 | > 100 | > 100 | > 100 | > 100 | > 100 | > 100 | > 100 | –
